# Data reported in US20220110910A1, “CANNABINOID-CONTAINING COMPLEX MIXTURES FOR THE TREATMENT OF CYTOKINE RELEASE SYNDROME WHILE PRESERVING KEY ANTI-VIRAL IMMUNE REACTIONS” (GBS Global BioPharma, Inc., priority 2020, published 2022).
# Entries after “also recorded” stand apart in the source; their conditions may differ.
# What was measured:
# Type in all cases: cell-based, human
# [1] = system: CD4+ T cells; assay: Intracellular IFNγ and IL-4 after anti-CD3/anti-CD28 stimulation and PMA/ionomycin; conditions: vs vehicle
# Experimental: (§1) In immunological activity experiments, PBMC suspensions were pre-treated with cannabinoid and/or terpene compounds for 30 minutes before treatment with designated stimuli, cultured in 96 well tissue culture plates, and incubated at 37° C. and 5.0% CO2. In pDC experiments, cell suspensions were stimulated with CpG-ODN Type A 2216 (15 μg/mL) (InvivoGen©, San Diego, Calif.) following treatment with cannabinoids. Golgi transport inhibitors Monensin (2 μM)/Brefeldin A (3.0 μg/mL) (Thermo Fisher Scientific, Waltham, Mass.) were added to culture 3 hours post-stimulation, and after 7 hours of stimulation cells were harvested for evaluation by flow cytometry for IFNα and TNFα. In monocyte experiments, cell suspensions were stimulated with 1000 ng/mL LPS (S. typhosa, Sigma Aldrich, St. Louis, Mo.) for 18 hours before harvesting supernatants for IL-1β, Golgi blocked for 6 hours before harvesting cells for assessment of IL-6, or cultured for 48 hours before harvesting cells for assessment of HLA-DR, CD80, and CD86. In phagocytosis experiments, cell suspensions were treated with 3.0 mg/mL of pHrodo Green BioParticles (Thermo Fisher). In T cell experiments, cells were plated on 96 well tissue culture plates pre-coated with 5.0 μg/mL anti-CD3 (clone UCHT1, Biolegend, San Diego, Calif.) and stimulated with 5.0 μg/mL anti-CD28 (clone 28.2, Biolegend) and supplemented with 5.0 ng/mL IL-2 (Roche Applied Science, Indianapolis, Ind.). CD25 and CD69 were assessed by flow cytometry 24 hours post-stimulation. In proliferation experiments, cell suspensions were incubated with CFSE Cell Division Tracker (Biolegend) according to manufacturer protocols, harvested 4 days post-stimulation and assessed by flow cytometry. Cell suspensions were further stimulated with 50 ng/mL phorbol 12-myristate 13-acetate (PMA) and 1000 ng/mL ionomycin (Io) at 4 days post-stimulation for 18 hours, Golgi blocked for 6 hours, and harvested for IL-4 and IFNγ assessment by flow cytometry.
# (§2) In brief, pDC, monocyte and T cell were identified using antibodies directed against unique epitopes for each cell type and analyzed by flow cytometry. Cells were fixed in BD CytoFix and resuspended in FACS buffer for extracellular staining. […] For intracellular staining, fixed cells were permeabilized in BD Permwash and incubated with appropriate antibodies and 7% human AB serum. pDC were identified as CD303+and assessed for intracellular IFNα and TNFα. Monocytes were identified as CD14+ and assessed for extracellular HLA-DR, CD80, CD86, and intracellular TNFα and IL-6. […] T cells were identified as CD3+ and T cell subsets identified by CD4+ and CD8+ and assessed for extracellular CD25 and CD69 and intracellular IFNγ and IL-4. […]
# [2] = system: monocytes; assay: Co-stimulatory markers HLA-DR, CD80, CD86 on monocytes after LPS; conditions: 2 days
# Experimental: as §1
# (§3) In brief, pDC, monocyte and T cell were identified using antibodies directed against unique epitopes for each cell type and analyzed by flow cytometry. Cells were fixed in BD CytoFix and resuspended in FACS buffer for extracellular staining. To determine the changes in cell viability in mixed PBMC, gates were first set on singlet events, then CD45+ cells, then populations identified by CD3+ (T cells) and CD14+ (monocytes), and then 7-AAD- for viability. Likewise, for pDC viability experiments, pDC were identified as CD303+ and viable by exclusion of Near IR L/D stain (Life Technologies, Carlsbad, Calif.). For intracellular staining, fixed cells were permeabilized in BD Permwash and incubated with appropriate antibodies and 7% human AB serum. pDC were identified as CD303+and assessed for intracellular IFNα and TNFα. Monocytes were identified as CD14+ and assessed for extracellular HLA-DR, CD80, CD86, and intracellular TNFα and IL-6. In phagocytosis experiments, PBMC were identified as CD45+ and monocytes were identified based on side scatter and then phagocytosing monocytes. T cells were identified as CD3+ and T cell subsets identified by CD4+ and CD8+ and assessed for extracellular CD25 and CD69 and intracellular IFNγ and IL-4. To analyze T cell proliferation, FlowJo 10.0 proliferation tool was used by setting the undivided peak of CFSE stained cells in each sample.
# [3] = system: CD8+ T cells; assay: Intracellular IFNγ after anti-CD3/anti-CD28 stimulation and PMA/ionomycin; conditions: vs vehicle
# Experimental: as §1, §2
# [4] = system: monocytes; assay: IL-1β ELISA in supernatants of LPS-stimulated PBMC; conditions: LPS 1000 ng/mL, vs vehicle
# Experimental: as §1
# To quantify IL-1β produced by monocytes, supernatants were collected from LPS stimulated cell suspensions after 18 hours and frozen at −80° C. ELISA MAX from Biolegend was used as per manufacturer protocol to quantify IL-1β to a sensitivity of […].
# [5] = system: monocytes; assay: Phagocytosis of pHrodo Green BioParticles by monocytes; conditions: 10 μM; pHrodo Green BioParticles 3.0 mg/mL; vs vehicle
# Experimental: as §1, with “In T cell experiments, cells were plated on 96 well tissue culture plates pre-coated with 5.0 μg/mL anti-CD3 (clone UCHT1, Biolegend, San Diego, Calif.) and stimulated with 5.0 μg/mL anti-CD28 (clone 28.2, Biolegend) and supplemented with 5.0 ng/mL IL-2 (Roche Applied Science, Indianapolis, Ind.).” left out, “Cell suspensions were further stimulated with 50 ng/mL phorbol 12-myristate 13-acetate (PMA) and 1000 ng/mL ionomycin (Io) at 4 days post-stimulation for 18 hours, Golgi blocked for 6 hours, and harvested for IL-4 and IFNγ assessment by flow cytometry.” left out
# as §2, with “cytometry.” for “cytometry. Cells were fixed in BD CytoFix and resuspended in FACS buffer for extracellular staining.”
# [6] = system: CD8+ T cells; assay: T cell activation markers CD25 and CD69, 24 hours post-stimulation; conditions: 10 μM
# Experimental: as §1, with “In T cell experiments, cells were plated on 96 well tissue culture plates pre-coated with 5.0 μg/mL anti-CD3 (clone UCHT1, Biolegend, San Diego, Calif.) and stimulated with 5.0 μg/mL anti-CD28 (clone 28.2, Biolegend) and supplemented with 5.0 ng/mL IL-2 (Roche Applied Science, Indianapolis, Ind.).” left out, “Cell suspensions were further stimulated with 50 ng/mL phorbol 12-myristate 13-acetate (PMA) and 1000 ng/mL ionomycin (Io) at 4 days post-stimulation for 18 hours, Golgi blocked for 6 hours, and harvested for IL-4 and IFNγ assessment by flow cytometry.” left out
# as §2, with “cytometry.” for “cytometry. Cells were fixed in BD CytoFix and resuspended in FACS buffer for extracellular staining.”
# [7] = system: monocytes; assay: IL-6+ monocytes after LPS stimulation (intracellular staining); conditions: LPS 1000 ng/mL, vs vehicle
# Experimental: as §1, with “In T cell experiments, cells were plated on 96 well tissue culture plates pre-coated with 5.0 μg/mL anti-CD3 (clone UCHT1, Biolegend, San Diego, Calif.) and stimulated with 5.0 μg/mL anti-CD28 (clone 28.2, Biolegend) and supplemented with 5.0 ng/mL IL-2 (Roche Applied Science, Indianapolis, Ind.).” left out, “Cell suspensions were further stimulated with 50 ng/mL phorbol 12-myristate 13-acetate (PMA) and 1000 ng/mL ionomycin (Io) at 4 days post-stimulation for 18 hours, Golgi blocked for 6 hours, and harvested for IL-4 and IFNγ assessment by flow cytometry.” left out
# as §2, with “cytometry.” for “cytometry. Cells were fixed in BD CytoFix and resuspended in FACS buffer for extracellular staining.”
# [8] = system: CD8+ T cells; assay: T cell proliferation (CFSE, FlowJo Proliferation tool)
# Experimental: as §1, §2
# [9] = system: CD4+ T cells; assay: as above
# Experimental: as §1, §2
# [10] = system: plasmacytoid dendritic cells (pDC); assay: IFNα and TNFα in pDC of PBMC stimulated with CpG-ODN (intracellular staining); conditions: 10 μM; CpG-ODN 15 μg/mL; vs vehicle
# Experimental: as §1, §3
# [11] = system: monocytes; assay: TNFα+ monocytes after CpG-ODN stimulation (intracellular staining); conditions: CpG-ODN 15 μg/mL, 6 hours, vs vehicle
# Experimental: FIGS. 9A-9B reveal the TNFα decreasing potential of cannabinol (CBN). […] PBMC were isolated from human peripheral blood and pre-treated with the indicated concentrations of cannabinol for 30 minutes, followed by stimulation with 15 μg/mL CpG-ODN for 6 hours (FIG. 9A). Cells were non-enzymatically released from culture plates and assessed for the percentage of TNFα+ monocytes (FIG. 9A) by intracellular staining. For FIG. 9B, PBMC were isolated from human peripheral blood and pre-treated with the indicated concentrations of cannabinol for 30 minutes, followed by treatment with 3.0 mg/mL of pHrodo Green BioParticles (FIG. 9B). In FIG. 9B, cells were treated with 3.0 mg/mL of pHrodo Green BioParticles and assessed for phagocytosis monocytes by flow cytometry within 2 hours. Data are normalized to each donor's vehicle control when appropriate and presented as mean±SEM. N=4-6 donors per treatment group. […] *p<0.05 when compared to VH (FIG. 9A), or **p<0.01 when compared to VH (FIG. 9B), by repeated measure one-way ANOVA with Dunnett's posttest.
# as §2
# [12] = indicated concentrations (0.001-10 μM)
structure (smiles),measurement,setting,value
"CCCCCc1cc(O)c(C/C=C(\C)CCC=C(C)C)c(O)c1 [CBG, cannabigerol]",IFNγ in CD4+ T cells,[1]; 0.01-1 μM,significantly decreased
same,IL-4 levels in CD4+ T cells,[1]; 0.1-1 μM,significantly decreased
same,HLA-DR co-stimulatory marker in monocytes,"[2]; 10 μM, vs vehicle",increased; also recorded: enhanced
same,CD86+ co-stimulatory marker in monocytes,"[2]; 1-10 μM, vs vehicle",increased; also recorded: enhanced
same,IFNγ in CD8+ T cells,[3]; 0.01-1 μM,significantly decreased
same,IL-1β in monocytes,[4]; 10 μM,significantly decreased
"C=C(C)[C@@H]1CCC(C)=C[C@H]1c1c(O)cc(CCC)cc1O [CBDV, cannabidivarin]",CD80+ co-stimulatory marker in monocytes,"[2]; 10 μM, vs vehicle",significantly decreased
same,CD86+ co-stimulatory marker in monocytes,"[2]; 10 μM, vs vehicle",increased
same,HLA-DR co-stimulatory marker in monocytes,"[2]; 10 μM, vs vehicle",significantly decreased
same,IFNγ in T cells (FIG. 8A: CD8+ T cells),[3]; 0.01 μM,significantly decreased
same,IL-1β in monocytes,[4]; 0.01 μM,increased; also recorded: significantly increases
same,IL-1β in monocytes,[4]; 10 μM,significantly decreased
same,phagocytosis by monocytes,[5],significantly decreased
same,CD25+ activation marker in CD8+ T cells,[6],decreased
same,CD69+ activation marker in CD8+ T cells,[6],decreased
same,IL-6 in monocytes,[7]; 1-10 μM,significantly decreased
"CCCCCc1cc(O)c2c(c1)OC(C)(C)[C@@H]1CCC(C)=C[C@@H]21 [THC, (6aR,10aR)-delta-9-tetrahydrocannabinol, reference compound]",proliferation of CD8+ T cells,[8]; 0.01 μM,significantly increased
same,proliferation of CD4+ T cells,[9]; 0.01 μM,significantly increased
same,CD80+ co-stimulatory marker in monocytes,"[2]; 10 μM, vs vehicle",significantly decreased
same,CD86+ co-stimulatory marker in monocytes,[2]; [12],did not cause a statistically significant change
same,HLA-DR+ co-stimulatory marker in monocytes,[2]; [12],did not cause a statistically significant change
same,IL-1β in monocytes,[4]; 10 μM,significantly decreased
same,IFNα in plasmacytoid dendritic cells (pDC),[10],significantly decreased
same,TNFα in plasmacytoid dendritic cells (pDC),[10],significantly decreased
same,TNFα in monocytes,[11]; 10 μM,significantly decreased
"C=C(C)[C@@H]1CCC(C)=C[C@H]1c1c(O)cc(CCCCC)cc1O [CBD, cannabidiol, reference compound]",IL-1β in monocytes,[4]; 10 μM,significantly decreased
same,phagocytosis by monocytes,[5],reduced; also recorded: significantly decreased
same,IL-6 in monocytes,[7]; 10 μM,significantly decreased
"CCCCCc1cc(O)c2c(c1)OC(C)(CCC=C(C)C)C=C2 (stereo not shown) [CBC, cannabichromene]",T cell proliferation in CD8+ T cells,[8]; increasing concentration up to 10 μM,not statistically significant
same,T cell proliferation in CD4+ T cells,[9]; 10 μM,significantly decreased
same,HLA-DR co-stimulatory marker in monocytes,"[2]; 10 μM, vs vehicle",increased
same,CD86+ co-stimulatory marker in monocytes,"[2]; 1-10 μM, vs vehicle",increased
same,TNFα in monocytes,[11]; 0.1 μM,significantly increased
same,IL-6 in monocytes,[7]; 10 μM,significantly decreased
